From US8575170B2, “Flurbiprofen analogs and methods of use in treating cancer” (The Regents of the Unversity of Colorado, a body corporate, priority 2010, dated 2013)
Like-named read-outs stand apart in the source and are kept apart here.

Tests used:
Format in all cases: cell-based
[1] = system: H322C; experiment: MTT cell viability, H322C; details: 96 h; Adenocarcinoma lung cell line H322C; 4 days incubation
Protocol: (§1) The ability of the flurbiprofen analog compounds of the invention to inhibit cancer cell growth and survival (viability) in a variety of cancer lines was examined in a standard MTT assay for cell viability, as detailed in Example 2.
(§2) The studies reported in Tables 1-3 above were carried out by incubating the cells in the test compound for four days, under standard cell-culture conditions, and measuring cell survival on day 5 (see Example 2).
(§3) Cell growth and survival following treatment with N—[(S)-2-Fluoro-α-methyl-4-biphenylacetyl]-[L-(4-phenylphenyl)alanine]-N-(2,2,6,6-tetramethyl-4-piperidinyl)amide (GCBH-110=B1031; (S)-Fmba-L-Bip-Atmp) were measured by a rapid colorimetric assay based on the tetrazolium salt MTT (3-(4,5-dimethylthiazol-2-yl)-2,5-diphenyl tetrazolium bromide) (Mosmann, J. Immunol. Methods 65: 55-63, 1983, with minor modifications).
(§4) Briefly, approximately 1,000-5,000 cancer cells from 15 different cancer cells lines were plated in 100 μL of growth medium in 96-well flat-bottomed microtiter plates. Cells were incubated overnight to allow recovery. Compounds to be tested were added to the cells in triplicate in a range of concentrations and the cells were incubated at 37° C., 5% CO2, with 100% humidity. Control cells were treated in the same way without antagonists. […] Absorbance was immediately determined using a scanning multiwell plate reader.

[2] = system: CaLu6; experiment: MTT cell viability, CaLu6; details: Homo sapiens, Calu-6, 96 h; Adenocarcinoma lung cell line CaLu6; 4 days incubation
Protocol: as §1, §2, §3, §4

[3] = system: H661; experiment: MTT cell viability, H661; details: Homo sapiens, NCI-H661, 96 h; Large Cell lung cell line H661; 4 days incubation
Protocol: as §1, §2, §3, §4

[4] = system: H513; experiment: MTT cell viability, H513; details: 96 h; Mesothelioma lung cell line H513; 4 days incubation
Protocol: as §1, §2, §3, §4

[5] = system: H290; experiment: MTT cell viability, H290; details: NCI-H290, 96 h; Mesothelioma lung cell line H290; 4 days incubation
Protocol: as §1, §2, §3, §4

[6] = system: H1648; experiment: MTT cell viability, H1648; details: Homo sapiens, NCI-H1648, 96 h; SCLC lung cell line H1648; 4 days incubation
Protocol: as §1, §2, §3, §4

[7] = system: S84; experiment: MTT cell viability, S84; details: Head and neck cancer cell line S84
Protocol: as §1
(§5) A similar study was conducted on 14 […] cancer cell lines, identified in Table 2.
as §3
(§6) Briefly, approximately 1,000-5,000 cancer cells from 15 different cancer cells lines were plated in 100 μL of growth medium in 96-well flat-bottomed microtiter plates. Cells were incubated overnight to allow recovery. Compounds to be tested were added to the cells in triplicate in a range of concentrations and the cells were incubated at 37° C., 5% CO2, with 100% humidity. Control cells were treated in the same way without antagonists. […] Plates were incubated for 4 days, allowing sufficient time for cell replication and compound-induced cell death to occur. […] Absorbance was immediately determined using a scanning multiwell plate reader. […]

[8] = system: UMSCC22A; experiment: MTT cell viability, UMSCC22A; details: Head and neck cancer cell line UMSCC22A
Protocol: as §1, §5, §3, §6

[9] = system: HN31; experiment: MTT cell viability, HN31; details: Head and neck cancer cell line HN31
Protocol: as §1, §5, §3, §6

[10] = system: UMSCC19; experiment: MTT cell viability, UMSCC19; details: Head and neck cancer cell line UMSCC19
Protocol: as §1, §5, §3, §6

[11] = system: L33; experiment: MTT cell viability, L33; details: Pancreatic cancer cell, 96 h; Pancreatic cancer cells L33; 4 days incubation
Description: as §1
(§7) Similar results were obtained for the effect of the B1031 compound on the 14 pancreatic tumor cells lines shown in Table 3 below, where the dose dependent effect of the compound on survival of the pancreatic cancer cell lines is shown in FIG. 5.
as §2, §3
(§8) Briefly, approximately 1,000-5,000 cancer cells from 15 different cancer cells lines were plated in 100 μL of growth medium in 96-well flat-bottomed microtiter plates. Cells were incubated overnight to allow recovery. […] Absorbance was immediately determined using a scanning multiwell plate reader.

[12] = system: Panc-203; experiment: MTT cell viability, Panc-203; details: Homo sapiens, Panc203, 96 h; Pancreatic cancer cells Panc-203; 4 days incubation
Description: as §1, §7, §2, §3, §8

[13] = system: Panc-1005; experiment: MTT cell viability, Panc-1005; details: Homo sapiens, Panc1005, 96 h; Pancreatic cancer cells Panc-1005; 4 days incubation
Description: as §1, §7, §2, §3, §8

[14] = system: MiaPaCa; experiment: MTT cell viability, MiaPaCa; details: Homo sapiens, MIA PaCa-2, 96 h; Pancreatic cancer cells MiaPaCa; 4 days incubation
Description: as §1, §7, §2, §3, §8

[15] = system: Panc-1; experiment: MTT cell viability, Panc-1; details: Homo sapiens, 96 h; Pancreatic cancer cells Panc-1; 4 days incubation
Description: as §1, §7, §2, §3, §8

[16] = system: lung cancer cell lines; experiment: MTT cell viability, panel of lung cancer cell lines
Description: as §1
In one group of studies, the effect of compound B1031 (compound GCBH-110 above) on a variety of lung cancer cells lines identified in Tables 1A-1C was investigated FIGS. 1 and 2 are dose-response curves, showing the change in percent survival as a function of compound concentration, after four days incubation in the presence of the compound for the various cell lines tested (identified in Tables 1A-1C below). […] The 12 cell lines shown in Table 1A are all adenocarcinoma lines, a type of non-small cell lung carcinoma; the 11 cell lines shown in Table 1B, identified as adenosquamous, large cell, mesothelioma, squamous, and squaous mesothelioma, are non-small cell lung carcinoma lines; and the 7 cell lines shown in Table 1C are all small-cell lung carcinoma cell lines.
as §3
Briefly, approximately 1,000-5,000 cancer cells from 15 different cancer cells lines were plated in 100 μL of growth medium in 96-well flat-bottomed microtiter plates. Cells were incubated overnight to allow recovery. Compounds to be tested were added to the cells in triplicate in a range of concentrations and the cells were incubated at 37° C., 5% CO2, with 100% humidity. Control cells were treated in the same way without antagonists. […] Plates were incubated for 4 days, allowing sufficient time for cell replication and compound-induced cell death to occur. On day 5, 25 μL of a 2 mg/mL solution of MTT (Sigma) dissolved in RMPI-1640 was added to each well. The plate was incubated for 4 h at 37° C. The supernatant liquid was removed and the blue formazan complex was dissolved by adding 100 μL of 0.02 N HCl in 75% isopropanol to all wells. Absorbance was immediately determined using a scanning multiwell plate reader.
Similarly, cell growth and survival following treatment with GCBH-110=B1031 was tested using the same MTT assay in 17 lung cancer cell lines. GCBH-110=B1031 caused 50% cell death at concentrations between about 0.1 μM and about 2 μM under these conditions (FIG. 2).

C[C@H](C(=O)N[C@@H](Cc1ccc(-c2ccccc2)cc1)C(=O)NC1CC(C)(C)NC(C)(C)C1)c1ccc(-c2ccccc2)c(F)c1 [GCBH-110, N—[(S)-2-Fluoro-α-methyl-4-biphenylacetyl]-[L-(4-phenylphenyl)alanine]-N-(2,2,6,6-tetramethyl-4-piperidinyl)amide]
IC50 [1]: 450 nM
IC50 [2]: 340 nM
IC50 [3]: 350 nM
IC50 [4]: 1800 nM
IC50 [5]: 1300 nM
IC50 [6]: 280 nM
IC50 [7]: 230 nM
IC50 [8]: 430 nM
IC50 [9]: 540 nM
IC50 [10]: 2000 nM
IC50 [11]: 700 nM
IC50 [12]: 700 nM
IC50 [13]: 700 nM
IC50 [14]: 740 nM
IC50 [15]: 810 nM
IC50 ([16]; 17 lung cancer cell lines, FIG. 2, read-out: concentrations causing 50% cell death): 100 to 2000 nM
IC50 ([16]; 96 h, FIGS. 1 and 2, four days incubation, read-out: compound concentrations effective to produce 50% cell death): 100 to 2000 nM
IC50 ([16]; most of the lung cancer cell lines of Tables 1A-1C, read-out: IC50 value, most cell lines): < 500 nM
IC50 ([16]; span over the 32 lung cancer cell lines of Tables 1A-1C, read-out: IC50 values): 100 to 1800 nM
IC50 fold lower than flurbiprofen (anti-cancer activity relative to flurbiprofen) ([16]; variety of lung carcinoma cells, FIG. 9): about 1000 fold
